According to article PMC8956739, “A synthetic lipopeptide targeting top-priority multidrug-resistant Gram-negative pathogens” (Nature Communications, 2022):
In brackets after ≈: the same amount, converted by molar mass. Several values for one entry are separate records, joined by “and”; a condition that tells them apart may be missing. Equal values may be shown once. Read-outs that look alike come from different tables or passages of the source. Residues, ends and D or L forms follow the SMILES beside them.

Tests used:
[1] = system: P. aeruginosa FADDI-PA025; assay type: cell-based, Pseudomonas aeruginosa
Method in brief: (§1)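 Compounds were serially diluted in CaMHB, bacteria were added, and the lowest inhibitory concentration was recorded after broth microdilution testing.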

[2] = system: P. aeruginosa ATCC 27853; assay type: cell-based, Pseudomonas aeruginosa
Method in brief: as §1

[3] = system: P. aeruginosa FADDI-PA038; assay type: cell-based, Pseudomonas aeruginosa
Method in brief: as §1

[4] = system: P. aeruginosa ATCC 27853; assay: Neutropenic mouse bloodstream infection model; assay type: in vivo; settings: single IV dose 4 mg/kg; for Log10 CFU/mL blood at 4 h, Mean / Δlog10 CFU/mL blood (mean) / Log10 CFU/mL blood at 4 h, single mouse: 4 h; for Δlog10 CFU/mL blood (mean): treated minus control, mean of replicates; for Δlog10 CFU/mL blood (mean) / Log10 CFU/mL blood at 4 h, single mouse / Delta Log10 CFU/mL blood at 4 h, single mouse: 4 mg/kg; for Delta Log10 CFU/mL blood at 4 h, single mouse: treated mouse minus mean of vehicle mice
Method in brief: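 Female Swiss mice made neutropenic with cyclophosphamide (150 mg/kg day −4, 100 mg/kg day −1), infected IV with 50 µL of 4 × 10^8 CFU/mL. Lipopeptide 4 mg/kg (free base) IV at 2 h post-inoculation, n = 3. Efficacy = Δlog10 CFU/mL blood versus saline at 4 h post-dose.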

[5] = system: A. baumannii ATCC 19606; assay type: cell-based, Acinetobacter baumannii
Method in brief: as §1

[6] = system: A. baumannii FADDI-AB034; assay type: cell-based, Acinetobacter baumannii
Method in brief: as §1

[7] = system: A. baumannii FADDI-AB030; assay type: cell-based, Acinetobacter baumannii
Method in brief: as §1

[8] = system: K. pneumoniae FADDI-KP032; assay type: cell-based, Klebsiella pneumoniae
Method in brief: as §1

[9] = system: K. pneumoniae FADDI-KP065; assay type: cell-based, Klebsiella pneumoniae
Method in brief: as §1

[10] = system: Swiss mice, kidney; assay: Nephrotoxicity in mice (kidney histopathology); assay type: in vivo, mouse; settings: for Kidney histopathology (SQS Score): n = 3
Method in brief: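 Female Swiss mice (7-week-old, 22–28 g) received lipopeptides in saline either s.c. at 12 mg/kg ×6 every 2 h (total 72 mg/kg, n = 3) or i.p. at 20 or 25 mg/kg ×6 every 2 h (total 120 mg/kg, n = 6; 150 mg/kg, n = 3). Right kidney collected 20 h after last dose, fixed in 10% buffered formalin (pH 7.4), histology scored blinded.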

[11] = 72 mg/kg/d subcutaneously in six divided doses every 2 h

SMILES	MIC P. aeruginosa FADDI-PA025 ([1]; FADDI-PA025)	MIC P. aeruginosa ATCC 27853 ([2]; ATCC 27853)	MIC P. aeruginosa FADDI-PA038 ([3]; FADDI-PA038)	Log10 CFU/mL blood at 4 h, Mean [4]	Δlog10 CFU/mL blood (mean) [4]	Log10 CFU/mL blood at 4 h, single mouse [4]	Delta Log10 CFU/mL blood at 4 h, single mouse [4]	MIC A. baumannii ATCC 19606 ([5]; ATCC 19606)	MIC A. baumannii FADDI-AB034 ([6]; FADDI-AB034)	MIC A. baumannii FADDI-AB030 ([7]; FADDI-AB030)	MIC K. pneumoniae FADDI-KP032 ([8]; FADDI-KP032)	MIC K. pneumoniae FADDI-KP065 ([9]; FADDI-KP065)	Kidney histopathology (SQS Score) [10, 11]	Kidney histopathology, mice with the SQS score ([10]; mouse, in vivo)	further results
CCCCCCCCC(=O)N[C@@H](CCN)C(=O)N[C@H](C(=O)N[C@@H](CN)C(=O)N[C@H]1CCNC(=O)[C@H]([C@@H](C)O)NC(=O)[C@H](CCN)NC(=O)[C@H](CCN)NC(=O)[C@H](CC)NC(=O)[C@@H](CC(C)C)NC(=O)[C@H](CCN)NC1=O)[C@@H](C)O [Lipopeptide F314] (HELM PEPTIDE1{[CCCCCCCCC(=O)[*:2]].[Dab].T.[NC[C@H](N[*:1])C(=O)[*:2]].[Dab].[Dab].[dL].[Abu].[Dab].[Dab].T}$PEPTIDE1,PEPTIDE1,5:R3-11:R2$$$V2.0)	>32 µg/mL	1 µg/mL (≈ 0.887 µM)	2 µg/mL (≈ 1.77 µM)	4.33 Log10 CFU/mL blood	−2.82 log10 CFU/mL blood	4.52 Log10 CFU/mL blood and 4.04 Log10 CFU/mL blood and 4.42 Log10 CFU/mL blood	-2.63 Log10 CFU/mL blood and -3.10 Log10 CFU/mL blood and -2.72 Log10 CFU/mL blood	0.5 µg/mL (≈ 0.443 µM)	2 µg/mL (≈ 1.77 µM)	0.5 µg/mL (≈ 0.443 µM)	<0.125 µg/mL	0.25 µg/mL (≈ 0.222 µM)	+1 (SQS + 1 = mild damage (overall score, 1 to <15))	3/3	–
CC[C@@H]1NC(=O)[C@@H](CC(C)C)NC(=O)[C@H](CCN)NC(=O)[C@@H](NC(=O)[C@H](CN)NC(=O)[C@@H](NC(=O)[C@H](CCN)NC(=O)c2c(Cl)cccc2Cl)[C@@H](C)O)CCNC(=O)[C@H]([C@@H](C)O)NC(=O)[C@H](CCN)NC(=O)[C@H](CCN)NC1=O [Lipopeptide F360] (HELM PEPTIDE1{[O=C(c1c(Cl)cccc1Cl)[*:2]].[Dab].T.[NC[C@H](N[*:1])C(=O)[*:2]].[Dab].[Dab].[dL].[Abu].[Dab].[Dab].T}$PEPTIDE1,PEPTIDE1,5:R3-11:R2$$$V2.0)	4 µg/mL (≈ 3.45 µM)	0.5 µg/mL (≈ 0.431 µM)	4 µg/mL (≈ 3.45 µM)	7.04 Log10 CFU/mL blood	−0.07 log10 CFU/mL blood	7.26 Log10 CFU/mL blood and 6.45 Log10 CFU/mL blood and 7.41 Log10 CFU/mL blood	0.15 Log10 CFU/mL blood and -0.66 Log10 CFU/mL blood and 0.30 Log10 CFU/mL blood	16 µg/mL (≈ 13.8 µM)	8 µg/mL (≈ 6.9 µM)	4 µg/mL (≈ 3.45 µM)	1 µg/mL (≈ 0.862 µM)	0.5 µg/mL (≈ 0.431 µM)	0 (SQS 0 = no significant change (overall score, <1))	3/3	–
CC[C@@H]1NC(=O)[C@@H](CC(C)C)NC(=O)[C@H](CCN)NC(=O)[C@@H](NC(=O)[C@H](CN)NC(=O)[C@@H](NC(=O)[C@H](CCN)NC(=O)c2cccc(Cl)c2)[C@@H](C)O)CCNC(=O)[C@H]([C@@H](C)O)NC(=O)[C@H](CCN)NC(=O)[C@H](CCN)NC1=O [Lipopeptide F371] (HELM PEPTIDE1{[O=C(c1cccc(Cl)c1)[*:2]].[Dab].T.[NC[C@H](N[*:1])C(=O)[*:2]].[Dab].[Dab].[dL].[Abu].[Dab].[Dab].T}$PEPTIDE1,PEPTIDE1,5:R3-11:R2$$$V2.0)	–	–	–	4.61 Log10 CFU/mL blood	−3.33 log10 CFU/mL blood	4.74 Log10 CFU/mL blood and 4.86 Log10 CFU/mL blood and 4.22 Log10 CFU/mL blood	-3.20 Log10 CFU/mL blood and -3.08 Log10 CFU/mL blood and -3.71 Log10 CFU/mL blood	–	–	–	–	–	0 (SQS 0 = no significant change (overall score, <1))	–	MIC P. aeruginosa FADDI-PA025 ([1]; MDR clinical isolate): 1 µg/mL (≈ 0.888 µM); MIC P. aeruginosa ATCC 27853 [2]: 0.5 µg/mL (≈ 0.444 µM); MIC P. aeruginosa FADDI-PA038 ([3]; carbapenem-resistant isolate): 2 µg/mL (≈ 1.78 µM); MIC A. baumannii ATCC 19606 [5]: 4 µg/mL (≈ 3.55 µM); MIC A. baumannii FADDI-AB034 ([6]; carbapenem-resistant isolate): 1 µg/mL (≈ 0.888 µM); MIC A. baumannii FADDI-AB030 ([7]; carbapenem-resistant isolate): 1 µg/mL (≈ 0.888 µM); MIC K. pneumoniae FADDI-KP032 ([8]; carbapenem-resistant isolate): 0.5 µg/mL (≈ 0.444 µM); MIC K. pneumoniae FADDI-KP065 ([9]; carbapenem-resistant isolate): 1 µg/mL (≈ 0.888 µM); Kidney histopathology, mice with the SQS score [10, 11]: 3/3
CC[C@@H]1NC(=O)[C@@H](CC(C)C)NC(=O)[C@H](CCN)NC(=O)[C@@H](NC(=O)[C@H](CN)NC(=O)[C@@H](NC(=O)[C@H](CCN)NC(=O)c2ccc(Cl)cc2)[C@@H](C)O)CCNC(=O)[C@H]([C@@H](C)O)NC(=O)[C@H](CCN)NC(=O)[C@H](CCN)NC1=O [Lipopeptide F378] (HELM PEPTIDE1{[O=C(c1ccc(Cl)cc1)[*:2]].[Dab].T.[NC[C@H](N[*:1])C(=O)[*:2]].[Dab].[Dab].[dL].[Abu].[Dab].[Dab].T}$PEPTIDE1,PEPTIDE1,5:R3-11:R2$$$V2.0)	2 µg/mL (≈ 1.78 µM)	0.5 µg/mL (≈ 0.444 µM)	1 µg/mL (≈ 0.888 µM)	4.71 Log10 CFU/mL blood	−3.23 log10 CFU/mL blood	4.78 Log10 CFU/mL blood and 4.64 Log10 CFU/mL blood	-3.16 Log10 CFU/mL blood and -3.30 Log10 CFU/mL blood	1 µg/mL (≈ 0.888 µM)	0.25 µg/mL (≈ 0.222 µM)	1 µg/mL (≈ 0.888 µM)	0.25 µg/mL (≈ 0.222 µM)	1 µg/mL (≈ 0.888 µM)	0 (SQS 0 = no significant change (overall score, <1))	3/3	–
CC[C@@H]1NC(=O)[C@@H](CC(C)C)NC(=O)[C@H](CCN)NC(=O)[C@@H](NC(=O)[C@H](CN)NC(=O)[C@@H](NC(=O)[C@H](CCN)NC(=O)c2ccc(C)cc2)[C@@H](C)O)CCNC(=O)[C@H]([C@@H](C)O)NC(=O)[C@H](CCN)NC(=O)[C@H](CCN)NC1=O [Lipopeptide F383] (HELM PEPTIDE1{[Cc1ccc(C(=O)[*:2])cc1].[Dab].T.[NC[C@H](N[*:1])C(=O)[*:2]].[Dab].[Dab].[dL].[Abu].[Dab].[Dab].T}$PEPTIDE1,PEPTIDE1,5:R3-11:R2$$$V2.0)	2 µg/mL (≈ 1.81 µM)	0.5 µg/mL (≈ 0.452 µM)	1 µg/mL (≈ 0.905 µM)	4.91 Log10 CFU/mL blood	−3.02 log10 CFU/mL blood	5.76 Log10 CFU/mL blood and 4.40 Log10 CFU/mL blood and 4.59 Log10 CFU/mL blood	-2.18 Log10 CFU/mL blood and -3.54 Log10 CFU/mL blood and -3.35 Log10 CFU/mL blood	2 µg/mL (≈ 1.81 µM)	2 µg/mL (≈ 1.81 µM)	2 µg/mL (≈ 1.81 µM)	1 µg/mL (≈ 0.905 µM)	1 µg/mL (≈ 0.905 µM)	0 (SQS 0 = no significant change (overall score, <1))	3/3	–
CC[C@@H]1NC(=O)[C@@H](CC(C)C)NC(=O)[C@H](CCN)NC(=O)[C@@H](NC(=O)[C@H](CN)NC(=O)[C@@H](NC(=O)[C@H](CCN)NC(=O)c2ccc(Cl)cc2F)[C@@H](C)O)CCNC(=O)[C@H]([C@@H](C)O)NC(=O)[C@H](CCN)NC(=O)[C@H](CCN)NC1=O [Lipopeptide F448] (HELM PEPTIDE1{[O=C(c1ccc(Cl)cc1F)[*:2]].[Dab].T.[NC[C@H](N[*:1])C(=O)[*:2]].[Dab].[Dab].[dL].[Abu].[Dab].[Dab].T}$PEPTIDE1,PEPTIDE1,5:R3-11:R2$$$V2.0)	1 µg/mL (≈ 0.874 µM)	0.5 µg/mL (≈ 0.437 µM)	0.5 µg/mL (≈ 0.437 µM)	4.51 Log10 CFU/mL blood	−3.06 log10 CFU/mL blood	4.51 Log10 CFU/mL blood and 4.31 Log10 CFU/mL blood and 4.72 Log10 CFU/mL blood	-3.07 Log10 CFU/mL blood and -3.27 Log10 CFU/mL blood and -2.85 Log10 CFU/mL blood	2 µg/mL (≈ 1.75 µM)	0.5 µg/mL (≈ 0.437 µM)	1 µg/mL (≈ 0.874 µM)	<0.125 µg/mL	0.25 µg/mL (≈ 0.219 µM)	0 (SQS 0 = no significant change (overall score, <1))	3/3	–
